This note sets out measurements from ChEMBL document CHEMBL3751741, “Discovery of a potent and highly fluorescent sirtuin inhibitor” (Medchemcomm, 2015).

Values after ≈ are worked out from the molar mass of the structure shown. Active and inactive are the calls of the source. The calls are words filed in the database; no cut-off is given here.

Series [1] deals with T1, NAD-dependent protein deacetylase sirtuin-2 (Homo sapiens) (UniProt Q8IXJ6).
T1 sequence (whole entry): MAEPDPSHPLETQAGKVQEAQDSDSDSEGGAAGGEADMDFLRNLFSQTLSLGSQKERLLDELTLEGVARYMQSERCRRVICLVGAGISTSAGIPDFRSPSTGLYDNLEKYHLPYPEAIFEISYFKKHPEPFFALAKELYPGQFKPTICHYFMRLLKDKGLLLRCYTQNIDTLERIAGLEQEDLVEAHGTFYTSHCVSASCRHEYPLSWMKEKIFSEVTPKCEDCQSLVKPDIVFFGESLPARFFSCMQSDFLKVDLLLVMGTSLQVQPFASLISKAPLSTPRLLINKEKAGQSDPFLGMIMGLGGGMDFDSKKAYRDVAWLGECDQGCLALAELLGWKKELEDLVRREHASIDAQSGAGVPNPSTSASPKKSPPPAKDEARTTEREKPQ
In words: Inhibition of recombinant human C-terminal His-tagged SIRT2 (13 to 319 residues) using human p53 derived peptides as substrate at 50 uM incubated for 45 mins by fluorescence assay.

The target in series [2] is T2, NAD-dependent protein deacetylase sirtuin-2 (Homo sapiens, UniProt Q8IXJ6).
T2 sequence (Q8IXJ6 whole entry): T1 sequence (whole entry)
In words: Inhibition of recombinant human C-terminal His-tagged SIRT2 (13 to 319 residues) using human p53 derived peptides as substrate incubated for 45 mins by fluorescence assay.

The subject of the next series is CCRF-CEM. In words: Antiproliferative activity against human CCRF-CEM cells assessed as cell viability at 50 uM after 72 hrs by MTS assay (reference value: 100 +/- 5.54%). The series is classed as functional. To be noted: read-out: Activity. In general terms: Tetrazolium assays rely on reduction of a dye to a coloured formazan, in cell work by metabolically active cells.

The nature of series [3]: Antiproliferative activity against human HCT116 cells assessed as cell viability at 50 uM after 72 hrs by MTS assay (reference value: 100 +/- 6.01%). The series is classed as functional. Conditions: HCT-116, 72 h, read-out: Activity.
In a further series the test system is MDA-MB-468. In words: Antiproliferative activity against human MDA-MB-468 cells assessed as cell viability at 50 uM after 72 hrs by MTS assay (reference value: 100 +/- 8.06%). Conditions: MDA-MB-468, 72 h, read-out: Activity. In kind it is functional.
In series [4] the target is T3, NAD-dependent protein deacetylase sirtuin-1 (Homo sapiens) (UniProt Q96EB6).
T3 sequence (whole entry): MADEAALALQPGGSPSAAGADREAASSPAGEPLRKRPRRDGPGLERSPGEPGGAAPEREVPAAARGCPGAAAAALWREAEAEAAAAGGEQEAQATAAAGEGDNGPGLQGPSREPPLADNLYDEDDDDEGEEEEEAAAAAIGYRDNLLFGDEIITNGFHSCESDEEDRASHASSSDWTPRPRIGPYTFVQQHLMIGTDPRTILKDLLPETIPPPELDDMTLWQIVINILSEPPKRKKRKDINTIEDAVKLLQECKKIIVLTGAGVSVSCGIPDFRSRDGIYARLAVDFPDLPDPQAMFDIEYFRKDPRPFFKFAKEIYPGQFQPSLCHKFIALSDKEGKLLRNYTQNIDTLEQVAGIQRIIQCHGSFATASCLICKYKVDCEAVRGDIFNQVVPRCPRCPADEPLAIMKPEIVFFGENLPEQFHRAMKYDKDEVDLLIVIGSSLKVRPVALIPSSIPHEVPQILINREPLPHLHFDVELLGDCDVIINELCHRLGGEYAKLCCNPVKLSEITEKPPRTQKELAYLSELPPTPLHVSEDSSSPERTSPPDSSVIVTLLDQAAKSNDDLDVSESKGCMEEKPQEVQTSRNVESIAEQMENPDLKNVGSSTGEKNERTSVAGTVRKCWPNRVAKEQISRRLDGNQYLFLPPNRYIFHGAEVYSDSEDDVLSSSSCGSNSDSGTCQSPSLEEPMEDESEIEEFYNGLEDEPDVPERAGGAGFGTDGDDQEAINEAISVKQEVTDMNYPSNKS
In words: Inhibition of recombinant human N-terminal GST-tagged SIRT1 (193 to 741 residues) using human p53 derived peptides as substrate at 50 uM incubated for 45 mins by fluorescence assay.

For series [5], the target named is T4, NAD-dependent protein deacetylase sirtuin-1 (Homo sapiens, UniProt Q96EB6).
T4 sequence (Q96EB6 whole entry): T3 sequence (whole entry)
In words: Inhibition of recombinant human N-terminal GST-tagged SIRT1 (193 to 741 residues) using human p53 derived peptides as substrate incubated for 45 mins by fluorescence assay.

The nature of series [6]: Drug uptake in cytoplasm of human HCT116 cells at 50 uM by fluorescence microscopy. Conditions: hct-116, 50 µM. The series is classed as ADME, cell-based.
In series [7] the target is T1, NAD-dependent protein deacetylase sirtuin-2 (Homo sapiens). In words: Inhibition of SIRT2 in human HCT116 cells assessed as increase in alpha-tubulin acetylation up to 50 uM incubated for 24 hrs by Western blotting method. In kind it is cell-based. Conditions: HCT-116. Background: In western blotting, separated proteins are transferred to a membrane and probed.
Series [8] is described as follows: Drug uptake in cytoplasm of human CCD18 cells at 50 uM by fluorescence microscopy. In kind it is ADME, cell-based. To be noted: ccd18, 50 µM.
The target of series [9] is T1, NAD-dependent protein deacetylase sirtuin-2 (Homo sapiens). Description: Competitive inhibition of recombinant human C-terminal His-tagged SIRT2 (13 to 319 residues) using human p53 derived peptides as substrate incubated for 45 mins by fluorescence assay in presence of increasing NAD+ level.
Series [10] can be described thus: Aqueous solubility of compound in water containing 0.5% DMSO by UV-spectrophotometry analysis. The series is classed as physicochemical.
Series [11] has as its target T1, NAD-dependent protein deacetylase sirtuin-2 (Homo sapiens). In words: Reversible inhibition of recombinant human C-terminal His-tagged SIRT2 (13 to 319 residues) using human p53 derived peptides as substrate at 10 uM incubated for 45 mins by fluorescence assay.

`CCOC(=O)c1ccc2[nH]c(-c3ccc(N(C)C)cc3)nc2c1`: in series [1], the inhibition was determined as 87.5%. Moreover, the IC50 in series [2] was found to be 13.6 µM. Besides, the viability at 50 µM with CCRF-CEM stood at 49.5%; in series [3], 29.7%; with MDA-MB-468 it was 31.1%.
Take `CCOC(=O)c1ccc2[nH]c(-c3ccccc3)nc2c1`: the inhibition turned out to be 36.3% in series [1] and 24.7% in [4]. Besides, the viability at 50 µM worked out at 58.3% with CCRF-CEM, 29.7% in [3] and 49.3% in the series on MDA-MB-468.
For the molecule `CCOC(=O)c1ccc2[nH]c(-c3ccc(O)cc3)nc2c1`, the inhibition in [1] is 42.9%. For the same molecule, the viability at 50 µM amounted to 85.5% in the series on CCRF-CEM, 77.1% in [3] and 76.5% with MDA-MB-468.
The like results for `CCOC(=O)c1ccc2[nH]c(-c3ccc(C)cc3)nc2c1` were, in that order, 45.2%, 61.2%, 48.4% and 89.1%.
Regarding `CCOC(=O)c1ccc2[nH]c(-c3ccc(C(C)(C)C)cc3)nc2c1`, the inhibition in series [1] worked out at 50.2%. The results for the viability at 50 µM (in the series on CCRF-CEM; in series [3]; with MDA-MB-468) were 82.2%, 54.2% and 54.6%, respectively.
Regarding `CCOC(=O)c1ccc2[nH]c(-c3ccc(N4CCOCC4)cc3)nc2c1`, the inhibition in series [1] worked out at 60.7%; in [4], 37.8%. Further, the IC50 came out at 52.9 µM in [2] and 57.5 µM in series [5]. Further, the viability at 50 µM in the series with CCRF-CEM is 37.8%; in series [3], 54.5%; in the series with MDA-MB-468 it was 42.6%.
Regarding `N#C/C(=C\c1ccc(-c2cc(Cl)ccc2Cl)o1)C(=O)Nc1cccc2ncccc12`, the half-inhibitory concentration (IC50) in series [5] came to 68 µM.
Turning to `CCOC(=O)c1ccc2[nH]c(-c3ccc(N4CCCCC4)cc3)nc2c1`, the inhibition in series [1] was found to be 93.2%. The IC50 in series [2] is 9 µM. Also, the Drug uptake result in series [6] and in series [8] was “Active” throughout. Further, the inhibition entry in [7], in [9] and in series [11] was “Active” in each case. Further, in series [10], the concentration in solution (solubility) was 59 µM (≈ 20.6 µg/mL). Also, the viability at 50 µM in the series with CCRF-CEM is 36.3%; in series [3], 15.9%; in the series on MDA-MB-468, 34%.
Take `CCOC(=O)c1ccc2[nH]c(-c3ccc(OC)cc3)nc2c1`: the inhibition in series [1] was determined as 26%. The viability at 50 µM with CCRF-CEM was found to be 87.4%; in [3], 75.6%; in the series with MDA-MB-468 it was 82.8%.

In general, inhibition refers to the percentage by which the read-out fell short of the control. The term IC50 denotes the concentration at which inhibition is half-maximal. Usually solubility stands for the dissolved amount per volume that the medium holds. Low values mean little dissolved substance, high ones much dissolved substance.
